By inhibition is commonly meant the change of the read-out against control, counted positive when it falls. A higher inhibition goes with strong suppression.

SMILES strings stand for the structures. Like-named read-outs stand apart in the source and are kept apart here.

The source of these data is EP0325048A1, “Imidazo- and pyrimido-quinoline, naphthyridine and pyridopyrazine compounds” (SCHERING CORPORATION, priority 1987, dated 1989).

Test [1] concerns reverse passive Arthus reaction in the pleural cavity of rats. Nature of the test: reverse passive Arthus reaction in the pleural cavity of rats (pleurisy). As to conditions: Rattus norvegicus, po; for inhibition in vivo at 3.125 mg/kg: 3.125 mg/kg p.o. (Table 4); for inhibition in vivo at 6.25 mg/kg: 6.25 mg/kg p.o. (Table 4); for inhibition in vivo at 12.5 mg/kg: 12.5 mg/kg p.o. (Table 4); for inhibition in vivo at 50 mg/kg: 50 mg/kg p.o. (Table 4); for inhibition in vivo at 1 mg/kg: 1 mg/kg p.o.; for inhibition in vivo at 3 mg/kg: 3 mg/kg p.o.; for inhibition in vivo at 9 mg/kg: 9 mg/kg p.o. It counts as in vivo, Male Lewis rats. How it is done:
Another procedure for testing for acute antiinflammatory activity measures the reverse passive Arthus reaction in the pleural cavity of rats.
Male Lewis rats weighing 180-220 grams were obtained from Charles River Breeding Laboratories, Wilmington, MA and permitted food and water ad libitum. Rooms housing the animals were temperature controlled with a 12 hour light and dark cycle.
Groups of five rats were dosed with drug 30 minutes prior to sensitization with BSA (1 mg/0.2 ml saline). Thirty minutes later the animals were challenged with the IgG fraction of a rabbit anti-bovine serum albumi antibodies (0.1 mg antibody protein per 0.2 ml saline Cooper Biomedical, Malvern, PA) in the pleural cavity. Four hours after challenge, the rats were sacrificed and the exudate harvested from the pleural cavity. The volume of the exudate was measured and the total number of cells determined with a Coulter Counter. [formula]
The results measured as percent inhibition of the infiltration of polymorphonuclear leucocytes (PMNs) and of edena are set forth below in Table 3.

The subject of test [2] is anaphylactic bronchospasm in sensitized guinea pigs. Nature of the test: anaphylactic bronchospasm in sensitized guinea pigs (modified Konzett-Rossler), antigen-induced SRS-A mediated bronchoconstriction. The class given is in vivo. As to conditions: for % Inhibition of Broncho-constriction: 2 hours before antigen challenge, inhibition of increase in intratracheal pressure; for % Inhibition of Bronchoconstriction: comparison compound (Table 2). On the procedure: The anti-allergy method of this invention is identified by tests which measure a compound's inhibition of anaphylactic bronchospasm in sensitized guinea pigs having antigen-induced SRS-A mediated bronchoconstriction. Allergic bronchospasm was measured in actively sensitized guinea pigs by a modification of the procedure of Konzett and Rossler, Arch. Exptl. Pathol. […] Male Hartley guinea pigs were sensitized with 5 mg ovalbumin injected ip and 5 mg injected sc in 1 ml saline on day 1 and 5mg ovalbumin injected ip on day 4. The sensitized animals were used 3-4 weeks later. To measure anaphylactic bronchospasm, sensitized guinea pigs were fasted overnight and the following morning were anesthetized with 0.9 ml/kg ip of dialurethane. The trachea and jugular vein were cannulated and the animals were ventilated by a Harvard rodent respirator. A side arm to the tracheal cannula was connected to a Harvard pressure transducer to obtain a continuous measure of intratracheal pressure. An increase in intratracheal pressure was taken as a measure of bronchoconstriction. Each guinea pig was injected iv with 1mg/kg propranolol, 5 mg/kg indomethacin and 2 mg/kg mepyramine given together in a volume of 1 ml/kg. Fifteen minutes later, the animals were challenged with antigen (0.5 per cent ovalbumin) delivered as an aerosol generated from a DeVilbiss Model 65 ultrasonic nebulizer and delivered through the tracheal cannula for 30 seconds. Bronchoconstriction was measured as the peak increase in intratracheal pressure occurring within 15 minutes after antigen challenge.

Test [3] relates to Reversed Passive Arthus Reaction (RPAR)-PAW. The experiment in a line: Reversed Passive Arthus Reaction (RPAR)-PAW technique. It counts as in vivo, male Lewis rats. As to conditions: 25 mg/kg (p.o.); paw volume at 2 hours post-challenge. How it is done:
The compounds of this invention are also useful for the treatment of inflammation; thus, they are useful for the treatment of: arthritis, bursitis, tendonitis, gout and other inflammatory conditions. […] The potency of the compounds is determined using indomethacin as the standard. On the basis of the test results, an oral dosage range of about 5 milligrams per kilogram of body weight per day to about 50 milligrams per kilogram of body weight per day in divided doses taken at about 4 hour intervals is recommended, again with any of the conventional modes of administration for treatment of inflammation being suitable.
Male Lewis inbred albino rats weighing 180-220 grams obtained from Charles River Breeding Laboratories are used in these experiments. The rats are housed 3 animals/cage and food and water are allowed ad libitum. The animals are numbered 1-3 in each cage and color marked for identification purposes.
All reagents and drugs are prepared just prior to the study. […]
Groups of animals (6/group) are dosed with drug in MC by gavage one hour prior to sensitization with BSA. […] The volume of mercury displaced is converted to weight and recorded. […] Paw volumes are also recorded with a plethysmograph during the development of the inflammation at 2 hours post-challenge.

Where [4] appears, read: 4 h, read-out: Pleurisy (% Inhibition) Edema.
Setting [5] is: 4 h, read-out: Pleurisy (% Inhibition) PMNs.
[6] abbreviates: 25 mg/kg p.o., exudate 4 hours after challenge, read-out: Pleurisy (% Inhibition) Edema.
Where [7] appears, read: 25 mg/kg p.o., exudate 4 hours after challenge, read-out: Pleurisy (% Inhibition) PMNs.

Turning to `C[C@]12C=CC(=O)C=C1CC[C@@H]1[C@@H]2C(=O)C[C@@]2(C)[C@H]1CC[C@]2(O)C(=O)CO` [Prednisone, prednisone, reference compound], in test [1] (setting [4]), the inhibition in vivo at 3.125 mg/kg is 2%, the inhibition in vivo at 6.25 mg/kg came out at 17%, the inhibition in vivo at 12.5 mg/kg amounted to 27% and the inhibition in vivo at 50 mg/kg was determined as 58%. In addition, in test [1] (setting [5]), the inhibition in vivo at 3.125 mg/kg turned out to be 7%, the inhibition in vivo at 6.25 mg/kg was found to be 16%, the inhibition in vivo at 12.5 mg/kg is 20% and the inhibition in vivo at 50 mg/kg was 42%. In addition, the inhibition in vivo at 25 mg/kg in test [1] (4 h, 25 mg/kg p.o. (Table 4), read-out: Pleurisy (% Inhibition) Edema) worked out at 44%. In test [1] (4 h, 25 mg/kg p.o. (Table 4), read-out: Pleurisy (% Inhibition) PMNs), the inhibition in vivo at 25 mg/kg came out at 25%.
Regarding `CN1CCn2c1c(-c1ccccc1)c1ncccc1c2=O` [R^3=CH3, R^4=phenyl, n=2, 2,3-dihydro-1-methyl-10-phenylimidazo[1,2-g][1,6]naphthyridin-5(1H)-one], the inhibition in vivo at 25 mg/kg stood at 56% in test [1] (setting [6]) and 69% in test [1] (setting [7]).
Consider `O=c1c2cccnc2c(-c2cccc(Cl)c2)c2n1CCCN2` [R^3=H, R^4=3-chloro phenyl, n=3, 11-(3-chlorophenyl)-1,2,3,4-tetrahydro-6H-pyrimido[1,2-g][1,6]naphthyridin-6-one], for which, in test [2] (5 mg/kg p.o.), the “% Inhibition of Broncho-constriction” value stood at 54%. The inhibition in vivo at 25 mg/kg was 76% in test [1] (setting [6]) and 82% in test [1] (setting [7]).
Take `O=c1c2cccnc2c(-c2cccc(Cl)c2)c2n1CCN2` [R^3=H, R^4=3-chloro-phenyl, n=2, 10-(3-chlorophenyl)-2,3-dihydroimidazo[1,2-g][1,6]naphthyridin-5(1H)-one]: in test [2] (5 mg/kg p.o.), the “% Inhibition of Broncho-constriction” value is reported as 43%.
In the case of `COc1cccc(-c2c3n(c(=O)c4cccnc24)CCN3)c1` [R^3=H, R^4=3-methoxy-phenyl, n=2, 2,3-dihydro-10-(3-methoxyphenyl)imidazo-[1,2-g][1,6]naphthyridin-5(1H)-one], in test [2] (5 mg/kg p.o.), the “% Inhibition of Broncho-constriction” value was 61%. Moreover, the inhibition in vivo at 25 mg/kg in test [1] (setting [6]) was found to be 69%; in test [1] (setting [7]), 79%.
For `O=c1c2cccnc2c(-c2ccc(Cl)cc2)c2n1CCN2` [R^3=H, R^4=4-chloro-phenyl, n=2, 10-(4-chlorophenyl)-2,3-dihydro-imidazo[1,2-g][1,6]naphthyridin-5(1H)-one], the “% Inhibition of Broncho-constriction” value in test [2] (5 mg/kg p.o.) worked out at 11%. In addition, the values for the inhibition in vivo at 25 mg/kg in test [1] (setting [6]) and in test [1] (setting [7]) were 92% and 95%, respectively.
In the case of `COc1ccc(-c2c3n(c(=O)c4cccnc24)CCN3)cc1` [R^3=H, R^4=4-methoxy-phenyl, n=2, 2,3-dihydro-10-(4-methoxyphenyl)imidazo-[1,2-g][1,6]naphthyridin-5(1H)-one], the “% Inhibition of Broncho-constriction” value in test [2] (10 mg/kg p.o.) worked out at 8%. Besides, the inhibition in vivo at 25 mg/kg in test [1] (setting [6]) came to 42%; in test [1] (setting [7]), 49%.
Turning to `Cc1ccc(-c2c3n(c(=O)c4cccnc24)CCN3)cc1` [R^3=H, R^4=4-methyl phenyl, n=2, 2,3-dihydro-10(4-methylphenyl)imidazo-[1,2-g][1,6]naphthyridin-5(1H)-one], the “% Inhibition of Broncho-constriction” value in test [2] (5 mg/kg p.o.) worked out at 1%. The inhibition in test [3] amounted to 42%. Further, the inhibition in vivo at 25 mg/kg in test [1] (setting [6]) is 42%; in test [1] (setting [7]), 53%.
`O=c1c2cccnc2c(-c2cccc3ccccc23)c2n1CCN2` [R^3=H, R^4=naphthyl, n=2, 2,3-dihydro-10-(1-naphthalenyl)imidazo-[1,2-g][1,6]naphthyridin-5(1H)-one]: the inhibition in vivo at 25 mg/kg in test [1] (setting [6]) came to 28%; in test [1] (setting [7]), 50%.
Take `O=c1c2cccnc2c(-c2ccccc2)c2n1CCN2` [R^3=H, R^4=phenyl, n=2, 2,3-dihydro-10-phenylimidazo[1,2-g][1,6]-naphthyridin-5(1H)-one]: the “% Inhibition of Broncho-constriction” value in test [2] (10 mg/kg p.o.) turned out to be 16%. Also, in test [3], the inhibition stood at 92%. Moreover, the inhibition in vivo at 1 mg/kg in test [1] (setting [4]) came to 9%; in test [1] (setting [5]) it was 3%. The inhibition in vivo at 3 mg/kg in test [1] (setting [4]) was 25%; in test [1] (setting [5]) it was 28%. The inhibition in vivo at 9 mg/kg in test [1] (setting [4]) amounted to 34%; in test [1] (setting [5]), 54%. The results for the inhibition in vivo at 25 mg/kg in test [1] (setting [6]) and in test [1] (setting [7]) were 55% and 90%, respectively.
`Cn1c(=O)c2[nH]cnc2n(C)c1=O` [aminophylline, reference compound]: the “% Inhibition of Bronchoconstriction” value in test [2] (18 mg/kg p.o.) was found to be 21%; in test [2] (53 mg/kg p.o.), 58%.
For `C[C@@H]1C[C@H]2[C@@H]3CCC4=CC(=O)C=C[C@]4(C)[C@@]3(F)[C@@H](O)C[C@]2(C)[C@@]1(O)C(=O)CO` [dexamethasone, reference compound], the “% Inhibition of Bronchoconstriction” value is given as 38% in test [2] (3 mg/kg p.o.) and 46% in test [2] (10 mg/kg p.o.).
With `CC(C)(C)c1ccc(C(O)CCCN2CCC(C(O)(c3ccccc3)c3ccccc3)CC2)cc1` (stereo not shown) [terfenadine, reference compound], in test [2] (30 mg/kg p.o.), the “% Inhibition of Bronchoconstriction” value was found to be 5%.
